Source: patent US3998963A, “Tertiary butyl substituted carbamoyl oxime pesticides” (priority 1975, dated 1976)

Tests used:
Type in all cases: in vivo
bean = test: Phytotoxicity Test, bean; details: 2500 parts per million; ten days
Protocol: (§1) Suspensions of the test compouns were prepared by dissolving one gram of compound in 50 milliliters of acetone in which had been dissolved 0.1 gram (10 percent of the weight of compound) of an alkylphenoxy polyethoxyethanol surfactant, as an emulsifying or dispersing agent. The resulting solution was mixed into 150 milliliters of water to give roughly 200 milliliters of a suspension containing the compound in finely divided form. The thus-prepared stock suspension contained 0.5 percent by weight of compound. The test concentrations in parts per million by weight employed in the tests described hereinbelow were obtained by appropriate dilutions of the stock suspension with water. The test procedures were as follows:
(§2) Experiments were also conducted to determine the phytotoxicity of representative compositions with respect to healthy fresh plants. Solutions of the compounds were prepared as described above to provide a concentration of 2500 parts per million of the test compound. The test plants were sprayed in accordance with the procedure described above for the Mite Foliage Spray Test so as to deliver approximately 100 milliliters of test solution to the leaves of each plant tested. The sprayed plants and controls were set aside for approximately one hour to allow the foliage to dry and were then placed in the greenhouse. After ten days the plants were visually inspected to determine the extent of foliage injury. A rating of 1 indicates no perceptible injury; 5 indicates the plant was dead and ratings of 2, 3 and 4 indicate intermediate degrees of injury based upon the number and extent to which leaves were injured.

[1] = system: bean, corn, tomato or cotton; test: Phytotoxicity Test, crop plants overall; details: text statement
Protocol: (§3) Each of the new compounds were evaluated in comparison with known similar prior art compounds to determine their comparative pesticidal activity against mites and certain insects, including an aphid, caterpillar, a beetle and a fly. The new compounds were also tested for phytotoxicity on important economic crops including bean, corn, tomato and cotton. The new compounds were further evaluated for mammalian toxicity.
as §1, §2

insects = test: Insect toxicity, overall; details: text statement
Protocol: as §3, §1
In Table 1 are presented insect and rat toxicity data (bait tests) on a comparative basis of the compounds described above. […] Rat toxicity is also more meaningfully compared on the basis of molar weight LD50 values. The relative efficacy of the parent compounds as compared to the previously known derivatives and as compared to the new compounds of this invention is also shown in Table 1. The ratio of efficacy as contact poisons (immersion/bait) of the compounds tested against Armyworm and House Fly is presented in Table 2 along with the results of the phytotoxicity tests of the compounds on bean, corn, tomato and cotton.

tomato = test: Phytotoxicity Test, tomato; details: 2500 parts per million; ten days
Protocol: as §1
as §2, with “After ten days the plants were visually inspected to determine the extent of foliage injury. A rating of 1 indicates no perceptible injury; 5 indicates the plant was dead and ratings of 2, 3 and 4 indicate intermediate degrees of injury based upon the number and extent to which leaves were injured.” left out

corn = test: Phytotoxicity Test, corn; details: 2500 parts per million; ten days
Protocol: as §1
as §2, with “After ten days the plants were visually inspected to determine the extent of foliage injury. A rating of 1 indicates no perceptible injury; 5 indicates the plant was dead and ratings of 2, 3 and 4 indicate intermediate degrees of injury based upon the number and extent to which leaves were injured.” left out

SMILES	Phytotoxicity, Bean (bean)	phytotoxicity (in words) [1]	also measured
CSC(C)=NOC(=O)N(C)Sc1ccc(Cl)cc1 [Compound 4]	Trif. 3	–	–
CSC(C)=NOC(=O)N(C)Sc1ccc(C(C)(C)C)cc1 [Compound 8, O-[N-Methyl-N-[4-(t-butylphenyl)sulfenyl]carbamoyl] S-Methyl Acetothiolhydroximate]	–	very low phytotoxicity	insect toxicity / pesticidal activity (in words) (insects): dramatic improvement in toxicity against all insects tested with the exception of house fly; insect toxicity / pesticidal activity (in words) (insects; listed as O-[ N-methyl-N-[4-(t-butylphenyl)sulfenyl] carbamoyl] S-methyl acetothiolhydroxi): exceptionally high insecticidal activity against aphid, armyworm and bean beetle
CC(=NOC(=O)N(C)Sc1ccc(Cl)cc1)SC(C)C [Compound 5]	Trif. 3	–	–
CC(=NOC(=O)N(C)Sc1ccc(C(C)(C)C)cc1)SC(C)C [Compound 9, O-[N-Methyl-N-[4-(t-Butylphenyl)sulfenyl]carbamoyl] S-Isopropyl Thiolacetohydroximate]	–	extremely low phytotoxicity	contact / stomach poison properties for insects (in words) (insects): dramatically superior contact poison characteristics; insect toxicity / pesticidal activity (in words) (insects): dramatic improvement in activity against all insect species, again with the exception of house fly; contact / stomach poison properties for insects (in words) (insects; listed as O-[ N-methyl-N-[4-(t-butylphenyl) sulfenyl] carbamoyl] S-isopropyl thiolacetohyd): outstanding stomach poison against insects and also appears to be the most powerful contact poison for insects among all of the compositions tested
CCSC(C)=NOC(=O)NC [Compound 3]	2	–	Phytotoxicity, Tomato (tomato): 2
CNC(=O)ON=C(C)SC(C)C [Compound 2]	Bu 2	phytotoxic to one or more of the crop plants	Phytotoxicity, Corn (corn): Bu 2
CNC(=O)ON=C(C)SC [Compound 1, O-(methylcarbamoyl) S-methyl acetothiolhydroximate]	BuCl 2	phytotoxic to one or more of the crop plants	–
